The source of these data is patent publication US12612637B2, “Compositions and methods for DHFR tunable protein regulation” (Obsidian Therapeutics, Inc., priority 2019, dated 2026).

Read-outs that look alike come from different tables or passages of the source. Where only a bound is given, the exact number is not on record here.

One series deals with Jurkat cells. Nature of the series: FACS GFP expression of transduced Jurkat cells treated with DMSO, 2 μM or 50 μM TMP. It counts as cell-based. Particulars: 2 μM TMP or 50 μM TMP, 24 hours. The protocol:
Clones selected from the final library after 4 rounds of sorting were cloned into pLVX.AcGFP.P2A.mcherry constructs and transduced into Jurkat cells for further characterization of DD activity. Transduced Jurkat cells were plated using 500,000 cells per well (1 ml total volume per well in 24 well plate) in duplicate for each condition. Cells were treated with DMSO (control), 2 μM TMP or 50 μM trimethoprim (TMP) for 24 hours prior to fluorescent activated cell sorting (FACS). Cells were characterized by FACS to determine their levels of GFP in the presence and absence of TMP.

The conditions of series [1]: cited from earlier work; for Duration of action: in vivo.

Turning to “hDHFR-046: hDHFR (Y122I) library clone cloned into pLVX.AcGFP.P2A.mcherry construct”, in the series with Jurkat cells, the “GFP expression upon addition of TMP” value is given as “higher levels of GFP expression upon addition of TMP”.

Broadly, the Cmax is the maximum level reached in the sampled fluid or tissue. Turning to `COc1cc(Cc2cnc(N)nc2N)cc(OC)c1OC` [Trimethoprim], the values for the Cmax in series [1] (IV) and in series [1] (PO) were 25 µM and 1 µM, respectively. Further, the Duration of action in series [1] is 2 to 72 h.

With “hDHFR-045: hDHFR (Y122I) library clone cloned into pLVX.AcGFP.P2A.mcherry construct”, the “GFP expression upon addition of TMP” value with Jurkat cells was “higher levels of GFP expression upon addition of TMP”.

`CN(Cc1cnc2nc(N)nc(N)c2n1)c1ccc(C(=O)N[C@@H](CCC(=O)O)C(=O)O)cc1` [Methotrexate]: in series [1], the Duration of action is over 12 h.
